Experimental findings from article PMC9820828, “Anti-Melanogenesis Effects of a Cyclic Peptide Derived from Flaxseed via Inhibition of CREB Pathway” (International Journal of Molecular Sciences, 2022) are described below.

Common to all, as to format: cell-based, mouse
The subject of data set [1] is B16F10 melanoma cells. Kind of data set: Extracellular melanin secretion in α-MSH-stimulated cells. Conditions: 48 h; for melanin (pigment) secretion: 12.5, 25 and 50 μM; for secretion of melanin: 6.25, 12.5 and 25 μM, dose-dependent. How it is done:
(§1) B16F10 melanoma cells (1.5 × 10^5 cells/mL) were seeded in a 6-well plate and cultured overnight. Then, the culture media were replaced with phenol red-free media containing DMSO (vehicle) or α-MSH (melanogenesis inducer) for the identification of the color change caused by melanogenesis. The cells were treated with different concentrations of LOMIX (25, 50, and 100 μg/mL) or LO A, B (6.25, 12.5, and 25 μM), D, E, and F and G (12.5, 25, and 50 μM). Arbutin at 1 mM was used as a positive control. After 48 h of the incubation, the culture medium’s optical density was detected at 475 nm to measure the amount of extracellular melanin secretion. Meanwhile, the remaining cells were harvested with 1 mL cold PBS and lysed with a lysis buffer (50 mM Tris-HCl pH 7.5, 120 mM NaCl, 20 mM β-glycerophosphate pH 7.5, and 2% NP-40). After centrifuging at 12,000× g for 5 min., the cell pellets were dissolved in 10% DMSO in 1 M NaOH and incubated at 60 °C. The melanin contents were measured at 405 nm using a Synergy™ HTX microplate reader. All photos of melanin-secreted medium and intracellular melanin contents were collected.

In data set [2] the test system is B16F10 melanoma cells. Kind of data set: Cell viability (MTT assay). To be noted: for cell viability (MTT): B16F10 melanoma cells; for toxicity (MTT): at the concentration contained in LOMIX and at all concentrations (0–50 μM). How it is done: Mouse-derived B16F10 melanoma cells were incubated in the DMEM medium supplemented with 10% (v/v) FBS and 1% streptomycin–penicillin solution at 37 °C and 5% CO2. Sub-culture was conducted by detaching the cells with trypsin-EDTA after reaching 90% confluence.
The effects of LOMIX and each LO compound on cell survival were determined using the MTT assay. B16F10 melanoma cells (100 μL of 1.5 × 10^5 cells/mL) were seeded in a 96-well plate with 100 μL of the testing sample [LOMIX (0–200 μg/mL) or LO (0–50 μM)]. After 2 days, MTT solution (10 μL) was added to each well, and cells were incubated for an additional 3 h in the dark. The reaction was stopped by adding 100 μL of 10% SDS complemented with 0.01 M HCl. Moreover, 5000 cells/well of B16F10 melanoma cells were incubated in 96-well plates to check the cytotoxicity of LOMIX in the presence of α-MSH. The 10 μL of MTT solution was added to the cells incubated with the LOMIX (50 and 100 μg/mL) and α-MSH (100 nM) for 0, 24, and 48 h. Subsequently, the stopping solution (100 μL) (10% SDS solution with 0.01 M HCl) was added after 3 h incubation. The absorbance was measured at 570 nm using Synergy™ HTX (Biotek Instruments Inc., Winooski, VT, USA).
For orientation: Formazan colour is commonly taken as a measure of viable cells.

Data set [3] deals with MITF. Kind of data set: Real-time PCR, MITF mRNA. To be noted: 0–25 μM, co-treatment with 100 nM α-MSH, 24 h, B16F10 cells. On the procedure:
(§2) B16F10 cells (3 × 10^5 cells/mL) stimulated by 100 nM α-MSH were treated with LOMIX (0–100 μg/mL), LO A or B (0–25 μM), or arbutin 1 mM for 24 h. The cells were lysed with 300 μL of TRI Reagent® to extract total RNA. Then, 1 μg of total RNA with Reverse Transcriptase M-MuLV (Thermo Fisher Scientific, Waltham, MA, USA) was utilized to synthesize cDNA according to the manufacturer’s instructions. Real-time PCR was conducted, as previously described.
(Quantitative PCR measures a nucleic acid by following its amplification.)

In the next data set the test system is CREB. As to the kind of experiment: Immunoblotting, phosphorylated CREB. Conditions: 0–25 μM, 100 nM α-MSH, 24 h, B16F10 cell lysates, Western blotting. How it is done: (§3) To induce melanogenesis, 3 × 10^5 B16F10 melanoma cells per mL were treated with 100 nM of α-MSH. Subsequently, 1 mM of arbutin or LO A or B (0–25 μM) was administered to the culture media for 24 h. The cells were then harvested with 1 mL of cold PBS and lysed with lysis buffer containing protease inhibitors (20 mM Tris-HCl pH 7.5, 2 mM EDTA, 20 mM NaF, 150 mM NaCl, 50 mM β-glycerol phosphate, and 2% NP-40 containing 2 μg/mL of leupeptin, pepstatin, and aprotinin). The whole cell lysates were centrifuged at 12,000× g for 5 min to purify the intracellular protein. SDS-polyacrylamide gel electrophoresis (Bio-Rad, Hercules, CA, USA) was conducted to separate the equivalent protein contents according to size. The separated proteins were transferred to polyvinylidene fluoride membranes and blocked with 3% (w/v) bovine serum albumin (BSA) solution for at least 30 min at ambient temperature. They then were incubated overnight with primary antibodies (1:2500 dilution) at 4 °C. After three 10-min washes with 0.1% (w/v) Tween-20, the membranes were probed with HRP-conjugated secondary antibodies (1:2500 dilution). The signals of each protein sample were detected with enhanced chemiluminescence reagents.

The subject of a further data set is PKA. As to the kind of experiment: Immunoblotting, phosphorylated PKA. To be noted: 0–25 μM, 100 nM α-MSH, 24 h, B16F10 cell lysates, Western blotting. How it is done:
as §3

The subject of a further data set is TYRP-1. As to the kind of experiment: Real-time PCR, TYRP-1 mRNA. Conditions: 0–25 μM, co-treatment with 100 nM α-MSH, 24 h, B16F10 cells. How it is done:
as §2

The test system of data set [4] is B16F10 melanoma cells. As to the kind of experiment: Intracellular melanin content in α-MSH-stimulated cells. To be noted: for melanin synthesis (melanin contents): 6.25, 12.5 and 25 μM, α-MSH, 48 h, B16F10 cells; for suppression of the synthesis of melanin: 12.5 and 25 μM, B16F10 cell lines. How it is done:
as §1

The test system of the next data set is Tyrosinase. Kind of data set: Real-time PCR, Tyrosinase mRNA. Conditions: 0–25 μM, co-treatment with 100 nM α-MSH, 24 h, B16F10 cells. On the procedure: as §2
For a further data set, the system named is TYRP-2. As to the kind of experiment: Real-time PCR, TYRP-2 mRNA. Conditions: 0–25 μM, co-treatment with 100 nM α-MSH, 24 h, B16F10 cells. On the procedure: as §2
Data set [5] has as its system MITF. Kind of data set: Immunoblotting, MITF protein. To be noted: 0–25 μM, 100 nM α-MSH, 24 h, B16F10 cell lysates, Western blotting. On the procedure:
as §3
In general terms: In western blotting, separated proteins are transferred to a membrane and probed.

With “[1–8-NαC],[1-(Rs,Ss)-MetO]-linusorb A2 [LO3]”, the “melanin (pigment) secretion” value in the data set on B16F10 melanoma cells [1] is reported as “decreased”. In addition, the “cell viability (MTT)” value in the data set on B16F10 melanoma cells [2] (50 μM, 48 h) is “not altered”. The “toxicity (MTT)” value in the data set on B16F10 melanoma cells [2] (B16F10 cells, 48 h) is recorded as “did not show toxicity”.

Take “[1–8-NαC],[1-(Rs,Ss)-MetO]-linusorb B1 [LO4]”: the “melanin (pigment) secretion” value in the data set with B16F10 melanoma cells [1] was “decreased”. For the same substance, the “cell viability (MTT)” value in the data set with B16F10 melanoma cells [2] (50 μM, 48 h) is “not altered”. Further, the “toxicity (MTT)” value in the data set on B16F10 melanoma cells [2] (B16F10 cells, 48 h) is “did not show toxicity”.

[1–9-NαC]-linusorb B2 [LO2]: in the data set on MITF [3], the “expression of MITF at mRNA level” value is listed as “downregulated”. Further, the “phosphorylation of CREB” value in the data set with CREB was “blocked”. Moreover, in the data set on PKA, the “phosphorylation of PKA” value is listed as “not PKA”. In addition, in the data set on B16F10 melanoma cells [1], the secretion of melanin result is recorded as “dramatically downregulated”. Further, the “expression of TYRP1 at mRNA level” value with TYRP-1 was “downregulated”. Also, in the data set on B16F10 melanoma cells [4], the “melanin synthesis (melanin contents)” value is given as “decreased” and the “suppression of the synthesis of melanin” value was “up to 90%”. For the same substance, the “expression of tyrosinase at mRNA level” value in the data set with Tyrosinase was “downregulated”. Moreover, in the data set on TYRP-2, the “expression of TYRP-2 at mRNA level” value is on record as “suppressed”. Moreover, the “protein level of MITF” value with MITF [5] was “decreased levels”.

As for [1–9-NαC]-linusorb B3 [LO1], the “expression of MITF at mRNA level” value with MITF [3] was “effectively inhibited”. The “phosphorylation of CREB” value with CREB was “suppressed”. In addition, the “phosphorylation of PKA” value with PKA was “suppressed”. Moreover, the secretion of melanin entry with B16F10 melanoma cells [1] is “dramatically downregulated”. In addition, the “expression of TYRP1 at mRNA level” value with TYRP-1 was “effectively inhibited”. For the same substance, in the data set on B16F10 melanoma cells [4], the “melanin synthesis (melanin contents)” value was “decreased” and the “suppression of the synthesis of melanin” value was “up to 90%”. The “expression of tyrosinase at mRNA level” value in the data set on Tyrosinase is listed as “effectively inhibited”. In the data set with B16F10 melanoma cells [2] (25 μM, 48 h), the “cell viability (MTT)” value is reported as “not altered”. Besides, in the data set on B16F10 melanoma cells [2] (50 μM, B16F10 cells, 48 h), the “cell survival (MTT)” value was “declined”. Moreover, the toxicity result in the data set on B16F10 melanoma cells [2] (12.5 and 25 μM, B16F10 cell lines) is given as “without toxicity”. In addition, in the data set on TYRP-2, the “expression of TYRP-2 at mRNA level” value is reported as “suppressed”. Further, the “protein level of MITF” value in the data set with MITF [5] is reported as “significantly decreased”.
